# Data published in EP4775571A1, “LPAR1 ANTAGONIST AND USE THEREOF” (Haisco Pharmaceutical Group Co., Ltd., priority 2023, dated 2025).
# Like-named read-outs stand apart in the source and are kept apart here.
# Columns and labels:
# LPAR1 = molecular target: T1, LPAR1 (Homo sapiens, UniProt Q92633); assay: Cell calcium flux assay (antagonist mode, LPA at EC80, FLIPR); type: cell-based
# T1 construct: expressed in transfected cells; host or cells: CHO (CHO-LPA1 cells)
# Procedure: • 1) The test compound was diluted to a 400X stock solution with DMSO in a 384-well plate. • 2) 1 µl of compound solution from step 1 was transferred into 39 ul of assay buffer to prepare a 10X working solution in a 384-well plate using a Bravo automated liquid handling platform. • 3) CHO-LPA1 cells were cultured in F12 medium (10% FBS). • 4) When cells reached 80% confluence, the cells were dissociated using 0.25% trypsin-EDTA. • 5) Cell density was determined and the cells were diluted to 4x10e5/ml using F12 (10% FBS). • 6) 30 µl of the cell suspension was dispensed into a 384-well plate (corning 3764#) using a multidrop automated dispenser, resulting in 12,000 cells per well. The plate was incubated at 37°C with 5% CO2 for 18-20 hours. • 7) The medium was replaced with 25 uL of serum-free medium and incubated overnight. • 8) 10 ul of 3.5X loading dye was added to each well of the cell plate. The plate was incubated in the dark at 37°C with 5% CO2 for 0.5-1 hours. • 9) After incubation, 5 µl of the 10X working solution from step 2 was transferred to the cell plate. • 10) The cell plate was incubated in the dark at 25°C for 15 minutes, and then the calcium signals were read. • 11) A 5X agonist (LPA) working solution in 1X HBSS+20 mM HEPES+0.1% BSA was prepared in a 384-well assay plate (greiner 784075#), with at least 20 µl per well. The agonist concentration used in this assay was determined based on the dose-response curve from a prior agonist mode experiment, with the EC80 value serving as the final agonist concentration. • 12) Data were read and saved using FLIPR at room temperature with the specified settings. • 13) The signal values were plotted against compound concentrations, and the curve fitting was performed and the IC50 values were calculated using nonlinear regression analysis in GraphPad Prism software.
# IC50 values are represented by grades A, B, C, and D, where A represents 0 < IC50 ≤ 10 nM, B represents 10 nM < IC50 ≤ 50 nM, C represents 50 nM < IC50 ≤ 100 nM, and D represents IC50 > 100 nM. Table 1 Antagonistic activity of the compounds of the present invention against LPAR1
# [1] = Pharmacokinetic test in mice; type: in vivo, C57 mice; conditions: for pharmacokinetic characteristics in mice: conclusion in words; for C0 or Cmax / AUC(0-t) / clearance / Vd / bioavailability: mice, plasma; for AUC(0-t) / clearance / Vd / bioavailability: mouse; for Vd: read-out: Vdss
# Procedure: 2.1 Experimental animals: Male C57 mice, 20-25 g, 6 mice/compound, purchased from Chengdu Ddossy Experimental Animals Co., Ltd.
# 2.2 Experimental design: On the day of the experiment, the C57 mice were randomly grouped according to their body weights. The animals were fasted with water available for 12-14 h one day before the administration, and were fed 4 h after the administration. Table 2. Administration information
# Before and after administration, 0.06 mL of blood was taken from the orbit under isoflurane anaesthesia and placed in an EDTAK2 centrifuge tube. The tube was centrifuged at 5000 rpm at 4°C for 10 min, and plasma was collected. The blood collection time points for the intravenous administration group and oral gavage administration group were: 0 min, 5 min, 15 min, 30 min, 1 h, 2 h, 4 h, 6 h, 8 h, and 24 h. Before analysis and detection, all samples were stored at -80°C, and the samples were quantitatively analysed by LC-MS/MS. Table 3. Pharmacokinetic parameters of test compounds in plasma of mice
# [2] = Pharmacokinetic test in rats; type: in vivo, SD rats; conditions: for Vd: read-out: Vdss
# Procedure: 3.1. Experimental animals: Male SD rats, about 220 g, 6-8 weeks old, 6 rats/compound, purchased from Chengdu Ddossy Experimental Animals Co., Ltd.
# 3.2. Experimental design: On the day of the experiment, the SD rats were randomly grouped according to their body weights. The animals were fasted with water available for 12-14 h one day before the administration, and were fed 4 h after the administration. Table 4. Administration information
# Before and after administration, 0.15 mL of blood was taken from the orbit under isoflurane anaesthesia and placed in an EDTAK2 centrifuge tube. The tube was centrifuged at 5000 rpm at 4°C for 10 min, and plasma was collected. Before analysis and detection, all samples were stored at -80°C, and the samples were quantitatively analysed by LC-MS/MS. Table 5. Pharmacokinetic parameters of test compound in plasma of rats
# [3] = CHO-LPA1 cells, calcium flux, grades, read-out: LPAR1 IC50
# [4] = antagonistic activity against the LPAR1 receptor, read-out: IC50 values
# [5] = rat, iv, rats, i.v. (1 mg/kg), plasma
# [6] = rat, po, rats, i.g. (3 mg/kg), plasma
# T1 sequence (Q92633 whole entry): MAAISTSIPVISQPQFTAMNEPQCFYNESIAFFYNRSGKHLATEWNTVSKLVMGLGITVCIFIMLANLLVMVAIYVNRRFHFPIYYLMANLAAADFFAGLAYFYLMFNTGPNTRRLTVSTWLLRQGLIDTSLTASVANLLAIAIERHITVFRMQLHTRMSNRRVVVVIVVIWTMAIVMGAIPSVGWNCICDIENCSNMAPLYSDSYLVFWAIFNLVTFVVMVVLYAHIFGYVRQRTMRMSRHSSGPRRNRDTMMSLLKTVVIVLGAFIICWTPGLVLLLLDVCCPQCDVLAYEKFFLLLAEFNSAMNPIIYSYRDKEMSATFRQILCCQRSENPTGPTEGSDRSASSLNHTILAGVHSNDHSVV
structure (smiles),measurement,setting,value
"C=C1CC(N(C)C(=O)OCc2c(-c3ccc(OCC4C(C(=O)O)C4(F)F)c(C)n3)nnn2C)C1 (single isomer, unassigned) [Compound 32-1]",IC50,LPAR1; [3],< 10 nM
"C=C1CC(N(C)C(=O)OCc2c(-c3ccc(OCC4C(C(=O)O)C4(F)F)c(C)n3)nnn2C)C1 (single isomer, unassigned) [Compound 32-4]",IC50,LPAR1; [3],< 10 nM
"C=C1CC(N(C)C(=O)OCc2c(-c3ccc(NC(=O)C4C(C(=O)O)C4(F)F)c(C)n3)nnn2C)C1 (single isomer, unassigned) [Compound 34-2]",IC50,LPAR1; [3],< 10 nM
"C=C1CC(CN(C)C(=O)OCc2c(-c3ccc(NC(=O)C4C(C(=O)O)C4(F)F)c(C)n3)nnn2C)C1 (single isomer, unassigned) [Compound 35-2]",IC50,LPAR1; [3],< 10 nM
"Cc1nc(-c2nnn(C)c2CNC(=O)OC2CC(=C(F)F)C2)ccc1OC1CCCCC(C(=O)O)C1 (single isomer, unassigned) [Compound 48-2]",IC50,LPAR1; [3],10 to 50 nM
C=C1CC(N(C)C(=O)OCc2c(-c3ccc(O[C@H]4CCC[C@H](C(=O)O)C4)c(C)n3)nnn2C)C1 [Compound 4],IC50,LPAR1; [3],< 10 nM
same,IC50,LPAR1; [4],2 nM
same,pharmacokinetic characteristics in mice,[1],excellent pharmacokinetic characteristics
same,C0 or Cmax,[1]; i.g. (3 mg/kg),687 ± 331 ng/mL
same,C0 or Cmax,[1]; i.v. (1 mg/kg),1066 ± 134 ng/mL
same,AUC(0-t),"[1]; iv, i.v. (1 mg/kg)",510 ± 95 ng·h/mL
same,clearance,"[1]; iv, i.v. (1 mg/kg)",33.2 ± 5.6 mL/min/kg
same,Vd,"[1]; iv, i.v. (1 mg/kg)",5.11 ± 1 L/kg
same,bioavailability,"[1]; po, i.g. (3 mg/kg)",≥ 98%
same,AUC(0-t),"[1]; po, i.g. (3 mg/kg)",2180 ± 672 ng·h/mL
C=C1CC(CN(C)C(=O)OCc2c(-c3ccc(O[C@H]4CCC[C@H](C(=O)O)C4)c(C)n3)nnn2C)C1 [Compound 5],IC50,LPAR1; [3],< 10 nM
same,IC50,LPAR1; [4],2 nM
CC=C1CC(N(C)C(=O)OCc2c(-c3ccc(O[C@H]4CCC[C@H](C(=O)O)C4)c(C)n3)nnn2C)C1 (stereo partly drawn) [Compound 7],IC50,LPAR1; [3],< 10 nM
same,IC50,LPAR1; [4],2 nM
C=C1CC(COC(=O)NCc2c(-c3ccc(O[C@H]4CCC[C@H](C(=O)O)C4)c(C)n3)nnn2C)C1 [Compound 11],IC50,LPAR1; [3],< 10 nM
Cc1nc(-c2nnn(C)c2COC(=O)N(C)C2CC(=C(F)F)C2)ccc1O[C@H]1CCC[C@H](C(=O)O)C1 (stereo partly drawn) [Compound 12],IC50,LPAR1; [3],< 10 nM
same,IC50,LPAR1; [4],2 nM
same,pharmacokinetic characteristics in mice,[1],excellent pharmacokinetic characteristics
same,C0 or Cmax,[1]; i.g. (3 mg/kg),581 ± 18 ng/mL
same,C0 or Cmax,[1]; i.v. (1 mg/kg),1938 ± 258 ng/mL
same,AUC(0-t),"[1]; iv, i.v. (1 mg/kg)",962 ± 131 ng·h/mL
same,clearance,"[1]; iv, i.v. (1 mg/kg)",17.5 ± 2.4 mL/min/kg
same,Vd,"[1]; iv, i.v. (1 mg/kg)",2.57 ± 0.23 L/kg
same,AUC(0-t),"[1]; po, i.g. (3 mg/kg)",1450 ± 81 ng·h/mL
Cc1nc(-c2nnn(C)c2COC(=O)N(C)CC2CC(=C(F)F)C2)ccc1O[C@H]1CCC[C@H](C(=O)O)C1 (stereo partly drawn) [Compound 13],IC50,LPAR1; [3],10 to 50 nM
Cc1nc(-c2nnn(C)c2COC(=O)N(C)CCOC(F)(F)F)ccc1O[C@H]1CCC[C@H](C(=O)O)C1 [Compound 14],IC50,LPAR1; [3],< 10 nM
Cc1nc(-c2nnn(C)c2COC(=O)N(C)OC2CCC2)ccc1O[C@H]1CCC[C@H](C(=O)O)C1 [Compound 15],IC50,LPAR1; [3],10 to 50 nM
CC(C)=C1CC(N(C)C(=O)OCc2c(-c3ccc(O[C@H]4CCC[C@H](C(=O)O)C4)c(C)n3)nnn2C)C1 (stereo partly drawn) [Compound 18],IC50,LPAR1; [3],< 10 nM
C=C1CCC(CN(C)C(=O)OCc2c(-c3ccc(O[C@H]4CCC[C@H](C(=O)O)C4)c(C)n3)nnn2C)CC1 [Compound 19],IC50,LPAR1; [3],< 10 nM
same,IC50,LPAR1; [4],2 nM
C=C1CC(N(C)C(=O)OCc2c(-c3ccc(N[C@H]4CCC[C@H](C(=O)O)C4)c(C)n3)nnn2C)C1 [Compound 21],IC50,LPAR1; [3],< 10 nM
Cc1nc(-c2nnn(C)c2CNC(=O)OCC2CC(=C(F)F)C2)ccc1O[C@H]1CCC[C@H](C(=O)O)C1 (stereo partly drawn) [Compound 23],IC50,LPAR1; [3],< 10 nM
C=C1C[C@H](Oc2ccc(-c3nnn(C)c3COC(=O)N(C)CCC)nc2C)C[C@@H](C(=O)O)C1 [Compound 24],IC50,LPAR1; [3],< 10 nM
C=C1CC(N(C)C(=O)OCc2c(-c3ccc(OCC4C(C(=O)O)C4(F)F)c(C)n3)nnn2C)C1 (stereo not drawn) [Compound 25],IC50,LPAR1; [3],< 10 nM
Cc1nc(-c2nnn(C)c2COC(=O)N(C)CCOC(F)F)ccc1O[C@H]1CCC[C@H](C(=O)O)C1 [Compound 27],IC50,LPAR1; [3],< 10 nM
Cc1nc(-c2nnn(C)c2COC(=O)N(C)CCSC(F)(F)F)ccc1O[C@H]1CCC[C@H](C(=O)O)C1 [Compound 28],IC50,LPAR1; [3],< 10 nM
C=C1CC(N(C)C(=O)OCc2c(-c3ccc(OCC(C)(C)CC(=O)O)c(C)n3)nnn2C)C1 [Compound 29],IC50,LPAR1; [3],< 10 nM
same,pharmacokinetic characteristics in rats,[2]; conclusion in words,good pharmacokinetic characteristics
same,AUC(0-t),[2]; [5],1090 ± 208 ng·h/mL
same,clearance,[2]; [5],15 ± 2.7 mL/min/kg
same,Vd,[2]; [5],3.53 ± 1.6 L/kg
same,AUC(0-t),[2]; [6],2540 ± 679 ng·h/mL
same,C0 or Cmax,"[2]; rats, i.g. (3 mg/kg), plasma",739 ± 29 ng/mL
same,C0 or Cmax,"[2]; rats, i.v. (1 mg/kg), plasma",2324 ± 170 ng/mL
Cc1nc(-c2nnn(C)c2COC(=O)N(C)[C@H]2C[C@@H](OC(F)(F)F)C2)ccc1O[C@H]1CCC[C@H](C(=O)O)C1 [Compound 30],IC50,LPAR1; [3],< 10 nM
Cc1nc(-c2nnn(C)c2COC(=O)N(C)[C@H]2C[C@H](OC(F)(F)F)C2)ccc1O[C@H]1CCC[C@H](C(=O)O)C1 [Compound 31],IC50,LPAR1; [3],< 10 nM
C=C1CC(N(C)C(=O)OCc2c(-c3ccc(OCC4(CC(=O)O)CC4)c(C)n3)nnn2C)C1 [Compound 36],IC50,LPAR1; [3],< 10 nM
CCCN(C)C(=O)OCc1c(-c2ccc(O[C@H]3CC(=C(F)F)C[C@H](C(=O)O)C3)c(C)n2)nnn1C [Compound 38],IC50,LPAR1; [3],< 10 nM
Cc1nc(-c2nnn(C)c2COC(=O)N(C)[C@H]2C[C@@H](OC(F)F)C2)ccc1O[C@H]1CCC[C@H](C(=O)O)C1 [Compound 39],IC50,LPAR1; [3],< 10 nM
Cc1nc(-c2nnn(C)c2COC(=O)N(C)[C@H]2C[C@H](OC(F)F)C2)ccc1O[C@H]1CCC[C@H](C(=O)O)C1 [Compound 40],IC50,LPAR1; [3],< 10 nM
Cc1nc(-c2nnn(C)c2CNC(=O)O[C@H]2C[C@@H](OC(F)(F)F)C2)ccc1O[C@H]1CCC[C@H](C(=O)O)C1 [Compound 41],IC50,LPAR1; [3],< 10 nM
Cc1nc(-c2nnn(C)c2CNC(=O)O[C@H]2C[C@H](OC(F)(F)F)C2)ccc1O[C@H]1CCC[C@H](C(=O)O)C1 [Compound 42],IC50,LPAR1; [3],< 10 nM
Cc1nc(-c2nnn(C)c2CNC(=O)OC2CC(=C(F)F)C2)ccc1OCCC1(C(=O)O)CC1 (stereo not drawn) [Compound 47],pharmacokinetic characteristics in mice,[1],excellent pharmacokinetic characteristics
same,C0 or Cmax,[1]; i.g. (3 mg/kg),566 ± 122 ng/mL
same,C0 or Cmax,[1]; i.v. (1 mg/kg),1361 ± 179 ng/mL
same,AUC(0-t),"[1]; iv, i.v. (1 mg/kg)",1000 ± 333 ng·h/mL
same,clearance,"[1]; iv, i.v. (1 mg/kg)",16.8 ± 5.7 mL/min/kg
same,Vd,"[1]; iv, i.v. (1 mg/kg)",5.4 ± 1.4 L/kg
same,bioavailability,"[1]; po, i.g. (3 mg/kg)",91.3%
same,AUC(0-t),"[1]; po, i.g. (3 mg/kg)",2740 ± 325 ng·h/mL
same,AUC(0-t),[2]; [5],2850 ± 532 ng·h/mL
same,clearance,[2]; [5],5.95 ± 1.2 mL/min/kg
same,Vd,[2]; [5],0.825 ± 0.027 L/kg
same,bioavailability,"[2]; rat, plasma, po, rats, i.g. (3 mg/kg)",≥ 98%
same,AUC(0-t),[2]; [6],12600 ± 1320 ng·h/mL
same,C0 or Cmax,"[2]; rats, i.g. (3 mg/kg), plasma",3060 ± 457 ng/mL
same,C0 or Cmax,"[2]; rats, i.v. (1 mg/kg), plasma",3233 ± 495 ng/mL
